# Experimental data taken from patent publication US20090318492A1, “INDOLE COMPOUNDS HAVING C4-ACIDIC SUBSTITUENTS AND USE THEREOF AS PHOSPHOLIPASE-A2 INHIBITORS” (priority 2005, published 2009).
# pIC50: −log10 of the molar value. Where two headings read alike, the source gives them in different places.
# Key:
# [1] = system: Caco-2 cells; assay: Example 6B Caco-2 permeability study; assay type: in vitro ADME, human
# Description: The culture medium was refreshed every 48 hours.
# Papp=(dQ/dt)×(1/C0)×(1/A)
# [2] = target: mouse PLA2 IB enzyme (Mus musculus, UniProt Q9Z0Y2); conditions: versus the mouse PLA2 IB enzyme; Singer, Ghomashchi et al. 2002; cited from earlier work
# Chain of mouse PLA2 IB enzyme (Q9Z0Y2 23-146): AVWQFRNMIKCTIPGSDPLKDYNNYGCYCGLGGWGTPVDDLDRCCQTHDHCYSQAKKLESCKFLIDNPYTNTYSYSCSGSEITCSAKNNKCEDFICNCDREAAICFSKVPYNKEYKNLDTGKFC
# [3] = target: human PLA2 IB enzyme (Homo sapiens, UniProt P04054); conditions: versus the human PLA2 IB enzyme; Singer, Ghomashchi et al. 2002; cited from earlier work
# Chain of human PLA2 IB enzyme (P04054 23-148): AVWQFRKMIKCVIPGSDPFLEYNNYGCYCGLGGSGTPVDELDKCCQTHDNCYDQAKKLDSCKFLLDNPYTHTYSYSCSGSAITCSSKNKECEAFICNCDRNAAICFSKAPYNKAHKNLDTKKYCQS
# [4] = Example 6C pharmokinetic study of ILY-4001 (IV and oral); assay type: in vivo, mice; conditions: 30 mg/kg oral
# Text: This example characterized ILY-4001 [2-(3-(2-amino-2-oxoacetyl)-1-(biphenyl-2-ylmethyl)-2-methyl-1H-indol-4-yloxy)acetic acid], alternatively referred to herein as methyl indoxam, with respect to activity, as determined by IC50 assay (Example 6A), with respect to cell absorbtion, as determined by in-vitro Caco-2 assay (Example 6B) and with respect to bioavailability, as determined using in-vivo mice studies (Example 6C).
# This example evaluated the bioavailability of ILY-4001 [2-(3-(2-amino-2-oxoacetyl)-1-(biphenyl-2-ylmethyl)-2-methyl-1H-indol-4-yloxy)acetic acid], alternatively referred to herein as methyl indoxam. […]
# Bioavailability was calculated as a ratio of AUC-oral/AUC-intravenous (IV). To determine this ratio, a first set of subject animals were given a measured intravenous (IV) dose of ILY-4001, followed by a determination of ILY-4001 levels in the blood at various time points after administration (e.g., 5 minutes through 24 hours). Another second set of animals was similarly dosed using oral administration, with blood levels of ILY-4001 determined at various time points after administration (e.g., 30 minutes through 24 hours). The level of ILY-4001 in system to circulation were determined by generally accepted methods (for example as described in Evans, G., A Handbook of Bioanalysis and Drug Metabolism. Boca Raton, CRC Press (2004)). […]
# [5] = system: C57BL/6 (wt) mice on high fat/high sucrose diabetogenic diet; assay: Example 5 in-vivo evaluation in mice on high fat/high sucrose diabetogenic diet; design: species or system mouse; conditions: for body weight gain compared to wild-type control group: week 4 and week 10; for plasma levels of cholesterol / plasma levels of triglycerides: 10 weeks
# Description: ILY-4001 (FIG. 2) was evaluated as a PLA2 IB inhibitor in a set of experiments using wild-type mice and genetically deficient PLA2 (−/−) mice (also referred to herein as PLA2 knock-out (KO) mice). In these experiments, wild-type and PLA2 (−/−) mice were maintained on a high fat/high sucrose diet, details of which are described below.
# Briefly, four groups were set up, each having six mice. Three of the groups included six wild-type PLA2 (+/+) mice in each group (eighteen mice total), and one of the groups included six genetically deficient PLA2 (−/−) mice. One of the wild-type groups was used as a wild-type control group, and was not treated with ILY-4001. The other two wild-type groups were treated with ILY-4001-one group at a lower dose (indicated as “L” in Table 1) of 25 mg/kg/day, and the other at a higher dose (indicated as “H” in Table 1) of 90 mg/kg/day. The group comprising the PLA2 (−/−) mice was used as a positive control group.
# The experimental protocol used in this study was as follows. The four groups of mice, including wild type and isogenic PLA2 (−/−) C57BL/J mice were acclimated for three days on a low fat/low carbohydrate diet. After the three day acclimation phase, the animals were fasted overnight and serum samples taken to establish baseline plasma cholesterol, triglyceride, and glucose levels, along with baseline body weight. The mice in each of the treatment groups were then fed a high fat/high sucrose diabetogenic diet (Research Diets D12331). 1000 g of the high fat/high sucrose D12331 diet was composed of casein (228 g), DL-methionine (2 g), maltodextrin 10 (170 g), sucrose (175 g), soybean oil (25 g), hydrogenated coconut oil (333.5 g), mineral mix S10001 (40 g), sodium bicarbonate (10.5 g), potassium citrate (4 g), vitamin mix V10001 (10 g), and choline bitartrate (2 g). This diet was supplemented with ILY-4001 treatments such that the average daily dose of the compound ingested by a 25 g mouse was: 0 mg/kg/day (wild-type control group and PLA2 (−/−) control group); 25 mg/kg/day (low-dose wild-type treatment group), or 90 mg/kg/day (high-dose wild-type treatment group). The animals were maintained on the high fat/high sucrose diet, with the designated ILY-4001 supplementation, for a period of ten weeks.
# Body weight measurements were taken for all animals in all treatment and control groups at the beginning of the treatment period and at 4 weeks and 10 weeks after initiation of the study. (See Example 5A). Blood draws were also taken at the beginning of the treatment period (baseline) and at 4 weeks and 10 weeks after initiation of the study, in order to determine fasting glucose (See Example 5B). Cholesterol and triglyceride levels were determined from blood draws taken at the beginning of the treatment (baseline) and at ten weeks. (See Example 5C).
# [6] = predicted to survive passage through the stomach; cited from earlier work
# [7] = target: T1, Porcine group 1B phospholipase A2 (pps PLA2) (Sus scrofa, UniProt P00592); assay: Example 8 fluorimetric PLA2 inhibition assay (PPyrPM), porcine enzyme; assay type: biochemical; conditions: read-out: ILYPSA IC50 pps PLA2
# T1 construct: purchased
# T1 sequence (P00592 23-146): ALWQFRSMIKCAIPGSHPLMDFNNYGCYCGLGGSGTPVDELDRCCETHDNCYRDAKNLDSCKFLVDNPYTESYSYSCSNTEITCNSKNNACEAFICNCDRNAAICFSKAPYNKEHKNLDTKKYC
# Text: (§1) In this example, a fluorimetric assay procedure was used to evaluate the indole and indole-related compounds of the invention as inhibitors of group 1B phospholipase A2 (PLA2) from human, mouse and porcine. A description of this assay is found in articles: Leslie, C C and Gelb, M H (2004) Methods in Molecular Biology “Assaying phospholipase A2 activity”, 284:229-242; Singer, A G, et al. (2002) Journal of Biological Chemistry “Interfacial kinetic and binding properties of the complete set of human and mouse groups I, II, V, X, and XII secreted phospholipases A2”, 277:48535-48549, which are incorporated herein as references.
# In general, this assay used a phosphatidylmethanol substrate with a pyrene fluorophore on the terminal end of the sn-2 fatty acyl chain. […] The effect of a given inhibitor and inhibitor concentration on human, mouse and porcine phospholipase was determined. […]
# The following procedure was performed to evaluate the inhibitory potency of the evaluated compounds. • 1. […] The fluorescence was read using an excitation of 342 nm and an emission of 395 nm.
# Evaluated compounds were tested in duplicate and their values were averaged to plot the inhibition curve and calculate the IC50. […] The IC50 was calculated using the BioDataFit 1.02 (Four Parameter Model) software package. […]
# [8] = target: T2, human group 1B PLA2 (hps PLA2) (Homo sapiens, UniProt P04054); assay: Example 8 fluorimetric PLA2 inhibition assay (PPyrPM), human enzyme; assay type: biochemical; conditions: read-out: ILYPSA IC50 hps PLA2
# T2 construct: made in house; host or cells: E. coli
# T2 sequence (P04054 23-148): as the sequence (P04054 23-148) above
# Text: as §1
# In general, this assay used a phosphatidylmethanol substrate with a pyrene fluorophore on the terminal end of the sn-2 fatty acyl chain. Without being bound by theory, close proximity of the pyrenes from neighboring phospholipids in a phospholipid vesicle caused the spectral properties to change relative to that of monomeric pyrene. Bovine serum albumin was present in the aqueous phase and captured the pyrene fatty acid when it is liberated from the glycerol backbone owing to the PLA2-catalyzed reaction. […] The effect of a given inhibitor and inhibitor concentration on human, mouse and porcine phospholipase was determined. […]
# (§2) The following procedure was performed to evaluate the inhibitory potency of the evaluated compounds. • 1. […]
# [9] = target: T3, mouse group 1B PLA2 (mps PLA2) (Mus musculus, UniProt Q9Z0Y2); assay: Example 8 fluorimetric PLA2 inhibition assay (PPyrPM), mouse enzyme; assay type: biochemical
# T3 construct: made in house; host or cells: E. coli
# T3 sequence (Q9Z0Y2 23-146): as the sequence (Q9Z0Y2 23-146) above
# Text: as §1
# In general, this assay used a phosphatidylmethanol substrate with a pyrene fluorophore on the terminal end of the sn-2 fatty acyl chain. Without being bound by theory, close proximity of the pyrenes from neighboring phospholipids in a phospholipid vesicle caused the spectral properties to change relative to that of monomeric pyrene. Bovine serum albumin was present in the aqueous phase and captured the pyrene fatty acid when it is liberated from the glycerol backbone owing to the PLA2-catalyzed reaction. However, a potent inhibitor can inhibit the liberation of pyrene fatty acid from the glycerol backbone. […] The effect of a given inhibitor and inhibitor concentration on human, mouse and porcine phospholipase was determined.
# Recombinant human and mouse group 1B PLA2 were cloned and expressed in E. coli as insoluble inclusion bodies. The inclusion bodies were isolated and purified by sonicating cell pellet in lysis buffer (50 mM Tris-HCl pH 7.0, 250 mM NaCl, 0.5% Triton 100), centrifugation at 12,000×g, and washing three times in washing buffer (20 mM Tris-HCl pH 7.0, 250 mM NaCl, 0.5% Triton 100). […]
# as §2
compound,measurement,setting,value
"Cc1c(C(=O)C(N)=O)c2c(OCC(=O)O)cccc2n1Cc1ccccc1-c1ccccc1 [ILY-4001, 2-(3-(2-amino-2-oxoacetyl)-1-(biphenyl-2-ylmethyl)-2-methyl-1H-indol-4-yloxy)acetic acid]",absorbtion from the GI lumen,[1]; based on Caco-2 assays and pharmokinetic studies,relatively low absorbtion
same,pIC50,[2],~6.82
same,pIC50,[3],~6.70
same,level of non-absorption from the GI tract into systemic circulation,[4],~72%
same,body weight gain compared to wild-type control group,[5]; 25 mg/kg/d in diet,significantly reduced body weight gains
same,body weight gain compared to wild-type control group,[5]; 90 mg/kg/d in diet,significantly reduced body weight gains
same,plasma levels of cholesterol,[5]; high dose (90 mg/kg/day),substantially reduced
same,plasma levels of triglycerides,[5]; high dose (90 mg/kg/day),substantially reduced
same,plasma levels of cholesterol,[5]; low dose (25 mg/kg/day),substantially reduced
same,plasma levels of triglycerides,[5]; low dose (25 mg/kg/day),substantially reduced
same,fasting glucose levels,"[5]; low dose (25 mg/kg/day), week four",moderately beneficial effect
same,fasting glucose levels,"[5]; low dose (25 mg/kg/day), week ten",beneficial effect was not observed
same,stability at low pH,[6],stable at low pH
2-(3-Aminooxalyl-1-{12-[3-aminooxalyl-4-(1-carboxy-2-methyl-propoxy)-2-methyl-indol-1-yl]-dodecyl}-2-methyl-1H-indol-4-yloxy)-3-methyl-butyric acid [ILY-V-44],pIC50,[7],7.30
same,pIC50,[8],6.55
same,pIC50,[9]; read-out: ILYPSA IC50 mps PLA2,6.32
Lucifer Yellow,apparent permeability,"[1]; 10 uM in apical wells, paracellular transport control",around 2.82×10^−7+/−0.37×10^−7 cm/s
"Cc1c(C(=O)C(N)=O)c2c(OC(C(=O)O)C(C)C)cccc2n1CCCCCCCCCCCCOc1ccccc1OCCCCCCCCCCCCn1c(C)c(C(=O)C(N)=O)c2c(OC(C(=O)O)C(C)C)cccc21 (stereo not drawn) [ILY-V-33, 2-{3-Aminooxalyl-1-[12-(2-{12-[3-aminooxalyl-4-(1-carboxy-2-methyl-propoxy)-2-methyl-indol-1-yl]-dodecyloxy}-phenoxy)-dodecyl]-2-methyl-1H-indol-4-yloxy}-3-methyl-butyric acid]",pIC50,[9],6.52
